Reference: patent US7795296B2, “Crystals of non-natural-type stereoisomer salt of monatin and use thereof” (Ajinomoto Co., Inc., priority 2001, dated 2010)
Like-named read-outs stand apart in the source and are kept apart here.

What was measured:
[1] = hydrochlorides, reported by K. Nakamura et al., cited from earlier work
[2] = test system: panelists; assay: Intensity of sweet taste, tasted against a 5% aqueous sucrose standard solution; type: in vivo; conditions: for Sweetness Intensity / Degree of sweet taste / intensity of sweet taste: as compared with a 5% aqueous solution of sucrose; for Degree of sweet taste / intensity of sweet taste: salt crystals
Description: Intensity of sweet taste (sweetening potency; degree of sweet taste) of the crystals of each stereoisomer obtained can be determined by comparing with a 5% aqueous solution of sucrose, but a method for the determination of intensity of sweet taste is not limited thereto. “Sweet taste” intensity of each stereoisomer obtained was measured by the following method. A 0.05% aqueous solution of each stereoisomer was prepared and diluted to an appropriate extent to prepare an aqueous solution of a sample of a predetermined concentration. Separately, a 5% aqueous solution of sucrose was prepared and used as a standard solution. The diluted aqueous solution of the sample and the standard aqueous sucrose solution were tasted one after another and the sweetness rate was determined from the sample concentration where the intensities of sweetness were noted to be same. Seven panelists performed the evaluation.

[3] = Comparison of thermostability of the crystals (120° C., open vial, decomposed products by HPLC); type: physicochemical; conditions: area % to residual monatin
Description: Comparison of Thermostability of the Crystals.
Each 50 mg of the crystals and the amorphous solid prepared by the above-mentioned methods were placed in a 4-ml vial and preserved (kept) at the temperature of 120° C. At that time, the vial was made in an open state. Each 2 mg of the sample were taken out after retention time of 3 hours, 7 hours and 24 hours and the rate (ratio) of decomposed products were determined by means of HPLC (high-performance liquid chromatography).

[4] = samples crystallized and purified as a sodium salt
[5] = samples prepared by HPLC, purified by ion-exchange resin and freeze-dried as an ammonium salt

In the case of Cl.N[C@@H](C[C@](O)(Cc1c[nH]c2ccccc12)C(=O)O)C(=O)O, the “Sweet taste, in words” value [1] is given as “almost no sweet taste” and the “Sweet taste, in words” value ([1]; listed as synthetic (2S,4R) monatin substance) is given as “slightly sweet taste”.

In the case of N[C@H](CC(O)(Cc1c[nH]c2ccccc12)C(=O)O)C(=O)O (stereo partly drawn) [(2R, 4S)], the “Sweetness Intensity” value [2, 4] is reported as “ca. 1300” and the “Sweetness Intensity” value [2, 5] is reported as “ca. 800”.

In the case of N[C@@H](C[C@@](O)(Cc1c[nH]c2ccccc12)C(=O)O)C(=O)O [(2S, 4S), (2S,4S)-2-amino-4-carboxy-4-hydroxy-5-(3-indolyl)-pentanoic acid], the “Intensity of the sweet taste” value ([2]; Example 1 ammonium salts, amorphous solid, 5% aqueous sucrose standard, seven panelists) is reported as “about 300 fold”, the “Sweetness Intensity” value [2, 4] is reported as “ca. 50” and the “Sweetness Intensity” value [2, 5] is reported as “ca. 300”. The “Intensity of sweet taste, comparison in words” value ([2]; comparison among the four stereoisomers and with reported data) was “far lower than the data which were reported already” and the “Degree of sweet taste / intensity of sweet taste” value [2] was “about 50 fold”.

In the case of N.N[C@H](C[C@](O)(Cc1c[nH]c2ccccc12)C(=O)O)C(=O)O [Ammonium salt crystals], the “Rate of Decomposed Product A (%)” value ([3]; retention time 3 hours) is reported as 1.9%, the “Rate of Decomposed Product B (%)” value ([3]; retention time 3 hours) is reported as 1.2% and the “Rate of Decomposed Product A (%)” value ([3]; retention time 7 hours) is reported as 3.8%. For the same compound, the “Rate of Decomposed Product B (%)” value ([3]; retention time 7 hours) was 2.3%, the “Rate of Decomposed Product A (%)” value ([3]; retention time 24 hours) was 11.8% and the “Rate of Decomposed Product B (%)” value ([3]; retention time 24 hours) was 7.6%.

For NC(CC(O)(Cc1c[nH]c2ccccc12)C(=O)O)C(=O)[O-].[Na+] (centres unmarked) [Example 11], the “Degree of sweet taste / intensity of sweet taste” value [2] was “about 1300 fold”.

With N[C@H](CC(O)(Cc1c[nH]c2ccccc12)C(=O)O)C(=O)O (some centres unmarked) [Free substance crystals] the “Rate of Decomposed Product A (%)” value ([3]; retention time 3 hours) was 2.0%, the “Rate of Decomposed Product B (%)” value ([3]; retention time 3 hours) was 2.1% and the “Rate of Decomposed Product A (%)” value ([3]; retention time 7 hours) was 3.8%. The “Rate of Decomposed Product B (%)” value ([3]; retention time 7 hours) was 4.3%, the “Rate of Decomposed Product A (%)” value ([3]; retention time 24 hours) was 5.3% and the “Rate of Decomposed Product B (%)” value ([3]; retention time 24 hours) was 11.7%.

In the case of Cl.N[C@@H](C[C@@](O)(Cc1c[nH]c2ccccc12)C(=O)O)C(=O)O [synthetic (2S,4S) monatin substance], the “Sweet taste, in words” value [1] is listed as “sweet potency equivalent to that of the a natural specimen of monatin”.
